The text below walks through data of patent US7521454B2 (Dainippon Sumitomo Pharma Co., Ltd., priority 2001, dated 2009).

One experiment relates to IL-5 production. The experiment is described as follows: Inhibitory activity against Th2 cytokine produced from sensitized spleen cells: IL-5. The format is cell-based, mouse. The conditions noted are these: Mus musculus, 72 h, OVA-sensitized BALB/c spleen cells, 3 days, read-out: Inhibitory activity against IL-5 production. The gist of the method:
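BALB/c mice immunized i.p. with 10 μg ovalbumin on alum, boosted at day 14; spleen cells taken 7 days later. Cells (5×10^6/well) restimulated with ovalbumin 0.5 mg/ml plus test compound, cultured 3 days at 37° C, 5% CO2. Supernatant cytokine quantified by ELISA.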

The next experiment relates to Renca cells. The experiment is described as follows: Antitumor effect in tumor-bearing mouse model (Renca). The experiment is classed as in vivo. Conditions: Renca in BALB/c mice, 5 times every 4 days. Here is the method: Murine renal adenocarcinoma-derived Renca cells (obtained from Iwate Medical University) were intradermally transplanted to the left ventral portions of 6-week-old BALB/c male mice (Charles River Japan, Inc.) at 5×10^4 cells/0.05 ml/mouse. Their body weights were measured on the next day, and they were divided into 5 groups (each group comprising 6 mice) in such a manner that the average body weights were substantially the same among groups. Vehicles (an aqueous solution of 0.5% carboxymethylcellulose (hereinafter referred to as “CMC-Na”)) and the compound of Example 27 (1 mg/kg and 3 mg/kg) were forcibly administered orally using an oral Sonde (10 ml/kg). Mouse interferon a (hereinafter referred to as “mIFN-α”) was intradermally administered to mice through their backs in amounts of 1×10^4 U/0.1 ml and 5×10^4 U/0.1 ml per mouse. Administration was carried out 5 times every 4 days. The longer diameter (L, mm) and the shorter diameter (W, mm) of the generated tumors were measured twice a week, and the tumor volumes (V, mm^3) were calculated (V=L×W^2). Also, significant difference was examined in accordance with Steel's multiple comparison. […]
A surveillance period of about 30 days after the transplantation was provided, the tumor volume and the body weight were monitored, and an antitumor effect against the Renca cells was evaluated. […]

For `CCCCNc1nc(N)c2nc(O)n(Cc3ccc(C)nc3)c2n1` [Example 27, 2-Butylamino-8-hydroxy-9-(6-methyl-3-pyridylmethyl)adenine], the activity at 0.001 µM with IL-5 production (concentration 1 nM) was found to be 68%. The activity at 0.01 µM with IL-5 production (concentration 10 nM) came to 20%. The activity at 0.1 µM in the experiment with IL-5 production (concentration 100 nM) came to 12%. In addition, in the experiment on Renca cells (1 and 3 mg/kg oral), the “antitumor effect compared with mIFN-α” value is “equivalent to or higher than that attained by the administration of mIFN-α”. In addition, the “tumor volume compared with the vehicle group” value in the experiment on Renca cells (Example 27 1 and 3 mg/kg oral, mIFN-α 1×10^4 and 5×10^4 U intradermal, P<0.05) is “significantly smaller”.
